# Measured values reported in patent US11633447B2, “Pharmaceutical composition and functional health food for preventing or treating macular degeneration” (LEMONEX INC., priority 2018, dated 2023).
# Assays:
# Balb-c mice = assay: Blue light-induced macular degeneration animal model, thickness of outer nuclear layer (ONL) by H&E staining; assay type: in vivo; conditions: oral, once daily, 50 mg/kg, blue light 10,000 lux 1 hour per day for 14 days
# Experimental: Balb-c mice (5 weeks old, males) were acclimated and bred for 2 days, and then orally administered with each of the banaba leaf extract, the guava leaf extract, the mixture thereof or lutein (50 mg/kg) once daily for 7 days. Then, after 24 hours of dark acclimatization, each of the extracts and the mixture and lutein was orally administered for 14 days, and 30 minutes later, followed by blue light irradiation at 10,000 lux for 1 hour per day. 24 hours after the blue light irradiation and the end of administration of the extract, the mice were sacrificed to an extract eyeball, and then, retinal cell protective effects were determined through tissue staining (FIG. 4).
# The extracted eyeball tissue was fixed with a neutral buffered formalin solution. The fixed eyeball was washed with running water and was subjected to a dehydration process using alcohol. Thereafter, a clearing process was performed using Xylene, and proper rigidity was given to the tissue using paraffin. The eyeball was made into a predetermined shape of paraffin block, and then cut to 4 μm thickness. The cut eyeball was subjected to hematoxylin & eosin (H & E) staining. […] Then, a thickness of the outer nuclear layer (ONL) of the visual cell was measured by Image J software (National Institute of Health, […], Md., USA)), followed by counting the number of nuclei. […]
# ARPE-19 cells = assay: Retinal pigment epithelial cell protection against blue light-induced photooxidation after A2E accumulation (cell counting kit-8 viability); assay type: cell-based; conditions: 17.04 μg/mL (30 μM) for 24 hours; 20 μM A2E; blue light 4,000 lux 10 minutes; difference control vs blue light group set to 100%
# Experimental: Since it is already known that photooxidation occurs when retinal pigment epithelial cells accumulated with A2E are irradiated with blue light, it was confirmed whether cytotoxicity derived by irradiation with blue light after 20 μM A2E accumulation in ARPE-19 cells could be suppressed using the banaba leaf extract, guava leaf extract, and the mixture thereof. Specifically, all ARPE-19 cells were treated with A2E at a concentration of 20 μM for 24 hours, and then treated with 100 μg/mL of the banaba leaf extract, the guava leaf extract, and the mixture thereof in Example 1, respectively, or 17.04 μg/mL (30 μM) of lutein for 24 hours. Thereafter, the treated cells were irradiated with blue light (4,000 lux) for 10 minutes. 24 hours after blue light irradiation, cell viability of ARPE-19 cells was measured by a cell counting kit-8 (Dojindo Labs, Japan), and the percentage of cell viability of each treatment group was compared to the control not irradiated with blue light. Lutein was used as a positive control. […] By setting a difference in cell viability between the control not irradiated with blue light and the blue light irradiated group to be 100%, cell protective effects of each extract were estimated by calculating cell protective effects through a difference in cell viability between the blue light irradiated group and the treated group. […]
smiles,measurement,setting,value
CC1=C[C@H](O)CC(C)(C)[C@H]1/C=C/C(C)=C/C=C/C(C)=C/C=C/C=C(C)/C=C/C=C(C)/C=C/C1=C(C)C[C@@H](O)CC1(C)C [lutein],ONL thickness change in administered groups,Balb-c mice,significantly increased ONL thickness
same,ONL protective effect (ONL thickness),Balb-c mice; difference control vs blue light group set to 100%,28.2%
same,cell protective effect (cell viability),ARPE-19 cells,48.4%
